Assay [1] concerns β-catenin-TCF-mediated reporter transcription activity in Colo 205 cells. In words: Colo 205 reporter assay (TCF/LEF luciferase). The class given is cell-based. The note with it: Colo 205 TCF/LEF luciferase reporter, five hours after addition of compound, read-out: TCF reporter Colo205 IC50. The essentials: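 Luciferase signal from a TCF/LEF-driven reporter, stably integrated in Colo 205 colon cancer cells, was measured 5 h after compound addition.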
(A reporter such as luciferase makes a cellular process visible.)

Assay [2] relates to Hek293 WFS1 over-expressor. In words: In vitro cell viability (CellTiter-Glo), Hek293 WFS1 over-expressor. Type of assay: cell-based. Here is the method:
WFS1 cDNA is amplified from clone RC202901 (Origene Technologies) with primers 5′-TCCGCGGCCCCAAGCTTATCGCCATGGACTCCAACACTGC-3′ (SEQ ID NO: 1), 5′-GATGGGCCCAGATCTCGAGTCAGGCCGCCGACAGGAATG-3′ (SEQ ID NO: 2) and cloned into a retroviral mammalian expression vector pCLPCX using HD Infusion (CLONTECH) at Hind3-Xhol sites using standard procedures. The resulting clone is identified as pCLPCX_WFS1.
HEK293 (ATCC, catalog #CRL-1573) cells are plated in 10 cm dishes (Corning, product #430167) into 10 mL of complete DMEM cell culture media [DMEM (Life Technologies, product #11960-051) media supplemented with 10% FBS (Hyclone, catalog #SH30071.03), antimycotic/antibiotic (Life Technologies, product #15240-062), and Glutamax (Life Technologies, product #35050-061)] at 3×10^6 cells per dish. Cells are allowed to attach and grow overnight at 37° C. in humidified 5% CO2. Cells are co-transfected with pVSV-G, pCMV-Gag/Pol and pCLPCX_WFS1 using Fugene 6 (Promega, catalog #E2691) according to manufacturer's protocol. Separately, cells are co-transfected with pVSV-G, pCMV-Gag/Pol and pCLPCX to produce control retrovirus. Cell culture media containing retrovirus (viral supernatant) is collected at 48 and 72 hours following transfection, filtered through a 0.4 uM filter, and stored at −80° C.
HEK293 cells are plated in 6 well plates (Corning, product #3516) in 2 mL of complete DMEM cell culture media at 1×10^5 cells well and allowed to attach and grow overnight at 37° C. in humidified 5% CO2. The following day, the media is replaced with viral supernatant to which 10 ug/ml of Polybrene® (Santa Cruz Biotech, catalog #sc-134220) is added. Viral supernatant is replaced 24 hours later with complete DMEM media. Transduced cells are selected in complete DMEM cell culture media containing 1 microgram/mL of puromycin (Life Technologies, catalog #A1113803).
HEK293 cells containing empty pCLPCx vector (HEK293 empty), HEK293 cells stably over-expression WFS1 (HEK293 WFS1), HepG2, and HepG2 cells where WFS1 was depleted via CRISPR/Cas9 (HepG2 WFS1 KO) cells were plated into 96-well black plates (Corning, product #3904) in 100 microliters of complete DMEM cell culture media [DMEM (Life Technologies, product #11960-051) media supplemented with 10% FBS (Hyclone, catalog #SH30071.03), antimycotic/antibiotic (Life Technologies, product #15240-062), and Glutamax (Life Technologies, product #35050-061)] at 1,000 (HEK293) or 5,000 (HepG2) cells per well. Cells were allowed to attach and grow overnight, after which compounds are added at various concentrations. Cell viability was assessed 96 hrs after compound addition with CellTiter-Glo reagent (Promega, catalog #G7570) according to manufacturer's protocol and measurement on a Pherastar luminescence plate reader (BMG Labtech).
The IC50s for the viability of both the Hek293 empty vector and WFS1 over-expressing cells are summarized in Table 47: A<0.06 μM; 0.06 μM≤B<0.6 μM; 0.6 μM≤C<3.0 μM; D≥3.0 μM.
A general note: ATP-based viability assays read luminescence as a measure of living cells.

The mark [3] stands for this setting: Homo sapiens, HEK293, Hek293 WFS1 over-expressing cells, read-out: Hek293 WFS1 viability.

Where two headings read alike, the source gives them in different places.

The results in this text go back to patent US20230312587A1, “PTERIDINONE COMPOUNDS AND USES THEREOF” (Vertex Pharmaceutical Incorporated, priority 2018, published 2023).

In the case of `Cc1nc(NCc2cnn(Cc3ccc(C(F)(F)F)nc3)c2)nc2c1NC(=O)[C@H](C)N2C` [Compound 136, (7S)-4,7,8-trimethyl-2-(((1-((6-(trifluoromethyl)pyridin-3-yl)methyl)-111-pyrazol-4-yl)methyl)amino)-7,8-dihydropteridin-6(5H)-one], the IC50 in assay [1] was under 300 nM; in assay [2] (Hek293 WFS1 over-expressing cells, read-out: Hek293 WFS1 viability), under 60 nM; in assay [2] (cell viability, Hek293 WFS1 over-expressor, read-out: IC50), 30 nM; in assay [2] (cell viability, Hek293 WFS1 over-expressor, read-out: IC50 class) it was under 60 nM. The “reduction in the IC50 on over-expression of WFS1 in Hek293 cells” value in assay [2] (cell viability, WFS1 over-expressor vs empty vector) is over 1000 fold.
As to `Cc1nn(C)cc1Cn1cc(CNc2nc(C)c3c(n2)N(C)[C@@H](C)C(=O)N3)cn1` [Compound 139, (7S)-2-(((1-((1,3-dimethyl-1H-pyrazol-4-yl)methyl)-1H-pyrazol-4-yl)methyl)amino)-4,7,8-trimethyl-7,8-dihydropteridin-6(5H)-one], the IC50 in assay [1] (Homo sapiens, COLO 205, 5 h) is 1000 to 5000 nM; in assay [2] (setting [3]), at least 3000 nM.
With `Cc1nc(NCc2cnn([C@H]3CCN(C4CCC(F)(F)CC4)C3)c2)nc2c1NC(=O)[C@H](C)N2C` [Compound 142, (7S)-2-(((1-((S)-1-(4,4-difluorocyclohexyl)pyrrolidin-3-yl)-1H-pyrazol-4-yl)methyl)amino)-4,7,8-trimethyl-7,8-dihydropteridin-6(5H)-one], the IC50 in assay [1] (Homo sapiens, COLO 205, 5 h) lay within 300 to 1000 nM; in assay [2] (setting [3]) it was 60 to 600 nM.
The like results for `Cc1nc(NCc2ccc(-n3cc(C(F)(F)F)cn3)nc2)nc2c1NC(=O)[C@H](C)N2C` [Compound 143, (S)-4,7,8-trimethyl-2-(((6-(4-(trifluoromethyl)-1H-pyrazol-1-yl)pyridin-3-yl)methyl)amino)-7,8-dihydropteridin-6(5H)-one] were, in that order, 300 to 1000 nM and 60 to 600 nM.
For the compound `Cc1nc(NCc2cnn(Cc3ccc(C(F)(F)F)cc3)c2)nc2c1NC(=O)[C@H](C)N2C` [Compound 149, (7S)-4,7,8-trimethyl-2-(((1-(4-(trifluoromethyl)benzyl)-1H-pyrazol-4-yl)methyl)amino)-7,8-dihydropteridin-6(5H)-one], the IC50 is under 300 nM in assay [1] (Homo sapiens, COLO 205, 5 h) and under 60 nM in assay [2] (setting [3]).
For `Cc1nc(NCc2cnn([C@@H]3C[C@@H]3c3ccc(F)cc3)c2)nc2c1NC(=O)[C@H](C)N2C` [Compound 154, (7S)-2-(((1-((1R,2R)-2-(4-fluorophenyl)cyclopropyl)-1H-pyrazol-4-yl)methyl)amino)-4,7,8-trimethyl-7,8-dihydropteridin-6(5H)-one], in that order: under 300 nM and under 60 nM.
For `Cc1nc(NCc2cnn(Cc3cc(C(F)(F)F)nn3C)c2)nc2c1NC(=O)[C@H](C)N2C` [Compound 160, (7S)-4,7,8-trimethyl-2-(((1-((1-methyl-3-(trifluoromethyl)-1H-pyrazol-5-yl)methyl)-1H-pyrazol-4-yl)methyl)amino)-7,8-dihydropteridin-6(5H)-one], in that order: under 300 nM and under 60 nM.
For `Cc1ncc(Cn2cc(CNc3nc(C)c4c(n3)N(C)[C@@H](C)C(=O)N4)cn2)cn1` [Compound 163, (7S)-4,7,8-trimethyl-2-(((1-((2-methylpyrimidin-5-yl)methyl)-1H-pyrazol-4-yl)methyl)amino)-7,8-dihydropteridin-6(5H)-one], in that order: 1000 to 5000 nM and at least 3000 nM.
Turning to `Cc1cnc(C(F)(F)F)nc1-n1cc(CNc2ncc3c(n2)N(C)[C@@H](C)C(=O)N3)cn1` [Compound 164, (7S)-7,8-dimethyl-2-(((1-(5-methyl-2-(trifluoromethyl)pyrimidin-4-yl)-1H-pyrazol-4-yl)methyl)amino)-7,8-dihydropteridin-6(5H)-one], the IC50 in assay [1] (Homo sapiens, COLO 205, 5 h) lay in the range of 1000 to 5000 nM; in assay [2] (setting [3]), 600 to 3000 nM.
As for `Cc1nc(NCc2cnn([C@@H]3CCN(c4ccc(F)cc4)C3)c2)nc2c1NC(=O)[C@H](C)N2C` [Compound 170, (7S)-2-(((1-((R)-1-(4-fluorophenyl)pyrrolidin-3-yl)-1H-pyrazol-4-yl)methyl)amino)-4,7,8-trimethyl-7,8-dihydropteridin-6(5H)-one], the IC50 was under 300 nM in assay [1] (Homo sapiens, COLO 205, 5 h) and under 60 nM in assay [2] (setting [3]).
